# Species: Rattus norvegicus
# Test: DrugMatrix - Regimen: Daily Repeat
# Assay type: toxicity, organism-based, Sprague-Dawley
# Set-up: regimen Daily Repeat, gender Male, age 6-8 weeks
# Conditions: in vivo, po, route oral GAVAGE, vehicle 100 % WATER; for ABSOLUTE BASOPHIL / ABSOLUTE EOSINOPHIL / ABSOLUTE LYMPHOCYTE / ABSOLUTE MONOCYTE / ABSOLUTE SEGMENTED NEUTROPHIL / BASOPHIL / EOSINOPHIL / ERYTHROCYTE COUNT / HEMATOCRIT / HEMOGLOBIN / LEUKOCYTE COUNT / LYMPHOCYTE / MEAN CORPUSCULAR HEMOGLOBIN / MEAN CORPUSCULAR HEMOGLOBIN CONCENTRATION / MEAN CORPUSCULAR VOLUME / MONOCYTE / NEUTROPHIL / NUCLEATED RED BLOOD CELLS / PLATELET COUNT: tissue Blood; for ALANINE AMINOTRANSFERASE / ALBUMIN / ALKALINE PHOSPHATASE / ASPARTATE AMINOTRANSFERASE / BLOOD UREA NITROGEN / CARBON DIOXIDE / CHLORIDE / CHOLESTEROL / CREATINE PHOSPHOKINASE / CREATININE / GLUCOSE / LACTATE DEHYDROGENASE / LIPASE / PHOSPHORUS / POTASSIUM / SODIUM / TOTAL BILIRUBIN / TOTAL PROTEIN / URIC ACID: tissue Plasma
# [1] = 0 mg/kg, 72 h, dose level Control, time 3 day
# [2] = 0 mg/kg, 120 h, dose level Control, time 5 day
# [3] = 60 mg/kg, 72 h, dose level Low, time 3 day
# [4] = 60 mg/kg, 120 h, dose level Low, time 5 day
smiles,measurement,setting,value
CC(CCc1ccccc1)NCC(O)c1ccc(O)c(C(N)=O)c1 (configuration not stated) [LABETALOL],ABSOLUTE BASOPHIL,[1],0 CELLS/uL
same,ABSOLUTE EOSINOPHIL,[1],168.33 CELLS/uL
same,ABSOLUTE LYMPHOCYTE,[1],13654.17 CELLS/uL
same,ABSOLUTE MONOCYTE,[1],121 CELLS/uL
same,ABSOLUTE SEGMENTED NEUTROPHIL,[1],1223.17 CELLS/uL
same,BASOPHIL,[1],0%
same,EOSINOPHIL,[1],1.17%
same,ERYTHROCYTE COUNT,[1],5.7 x10E6/uL
same,HEMATOCRIT,[1],35.33%
same,HEMOGLOBIN,[1],13.97 G/DL
same,LEUKOCYTE COUNT,[1],15.17 x10E3/uL
same,LYMPHOCYTE,[1],89.83%
same,MEAN CORPUSCULAR HEMOGLOBIN,[1],24.53 pg
same,MEAN CORPUSCULAR HEMOGLOBIN CONCENTRATION,[1],39.53 G/DL
same,MEAN CORPUSCULAR VOLUME,[1],62.05 fL
same,MONOCYTE,[1],0.83%
same,NEUTROPHIL,[1],8.17%
same,NUCLEATED RED BLOOD CELLS,[1],0 /100WBC
same,PLATELET COUNT,[1],1312.17 x10E3/uL
same,ALANINE AMINOTRANSFERASE,[1],50.83 u/L
same,ALBUMIN,[1],4.18 G/DL
same,ALKALINE PHOSPHATASE,[1],334.17 u/L
same,ASPARTATE AMINOTRANSFERASE,[1],82.17 u/L
same,BLOOD UREA NITROGEN,[1],15.5 mg/dL
same,CARBON DIOXIDE,[1],31.33 mmol/L
same,CHLORIDE,[1],99.83 MEQ/L
same,CHOLESTEROL,[1],76 mg/dL
same,CREATINE PHOSPHOKINASE,[1],272.17 u/L
same,CREATININE,[1],0.17 mg/dL
same,GLUCOSE,[1],143 mg/dL
same,LACTATE DEHYDROGENASE,[1],157.5 u/L
same,LIPASE,[1],9.33 u/L
same,PHOSPHORUS,[1],12.18 mg/dL
same,POTASSIUM,[1],6.78 MEQ/L
same,SODIUM,[1],143.9 MEQ/L
same,TOTAL BILIRUBIN,[1],0.22 mg/dL
same,TOTAL PROTEIN,[1],5.85 G/DL
same,URIC ACID,[1],1.7 mg/dL
same,ABSOLUTE BASOPHIL,[2],0 CELLS/uL
same,ABSOLUTE EOSINOPHIL,[2],0 CELLS/uL
same,ABSOLUTE LYMPHOCYTE,[2],13539.33 CELLS/uL
same,ABSOLUTE MONOCYTE,[2],177.67 CELLS/uL
same,ABSOLUTE SEGMENTED NEUTROPHIL,[2],2116.33 CELLS/uL
same,BASOPHIL,[2],0%
same,EOSINOPHIL,[2],0%
same,ERYTHROCYTE COUNT,[2],5.78 x10E6/uL
same,HEMATOCRIT,[2],36.13%
same,HEMOGLOBIN,[2],14.1 G/DL
same,LEUKOCYTE COUNT,[2],15.83 x10E3/uL
same,LYMPHOCYTE,[2],85.83%
same,MEAN CORPUSCULAR HEMOGLOBIN,[2],24.42 pg
same,MEAN CORPUSCULAR HEMOGLOBIN CONCENTRATION,[2],39 G/DL
same,MEAN CORPUSCULAR VOLUME,[2],62.55 fL
same,MONOCYTE,[2],0.83%
same,NEUTROPHIL,[2],13.33%
same,NUCLEATED RED BLOOD CELLS,[2],0.17 /100WBC
same,PLATELET COUNT,[2],1281.17 x10E3/uL
same,ALANINE AMINOTRANSFERASE,[2],55.5 u/L
same,ALBUMIN,[2],4.22 G/DL
same,ALKALINE PHOSPHATASE,[2],345 u/L
same,ASPARTATE AMINOTRANSFERASE,[2],92.5 u/L
same,BLOOD UREA NITROGEN,[2],16.5 mg/dL
same,CARBON DIOXIDE,[2],26.5 mmol/L
same,CHLORIDE,[2],103.5 MEQ/L
same,CHOLESTEROL,[2],78.5 mg/dL
same,CREATINE PHOSPHOKINASE,[2],381.5 u/L
same,CREATININE,[2],0.21 mg/dL
same,GLUCOSE,[2],161.83 mg/dL
same,LACTATE DEHYDROGENASE,[2],487.5 u/L
same,LIPASE,[2],10.17 u/L
same,PHOSPHORUS,[2],11.83 mg/dL
same,POTASSIUM,[2],6.4 MEQ/L
same,SODIUM,[2],146.95 MEQ/L
same,TOTAL BILIRUBIN,[2],0.22 mg/dL
same,TOTAL PROTEIN,[2],6.22 G/DL
same,URIC ACID,[2],1.83 mg/dL
same,ABSOLUTE BASOPHIL,[3],0 CELLS/uL
same,ABSOLUTE EOSINOPHIL,[3],201.33 CELLS/uL
same,ABSOLUTE LYMPHOCYTE,[3],14909.33 CELLS/uL
same,ABSOLUTE MONOCYTE,[3],67 CELLS/uL
same,ABSOLUTE SEGMENTED NEUTROPHIL,[3],1589 CELLS/uL
same,BASOPHIL,[3],0%
same,EOSINOPHIL,[3],1.33%
same,ERYTHROCYTE COUNT,[3],5.26 x10E6/uL
same,HEMATOCRIT,[3],33.47%
same,HEMOGLOBIN,[3],13 G/DL
same,LEUKOCYTE COUNT,[3],16.77 x10E3/uL
same,LYMPHOCYTE,[3],89.33%
same,MEAN CORPUSCULAR HEMOGLOBIN,[3],24.77 pg
same,MEAN CORPUSCULAR HEMOGLOBIN CONCENTRATION,[3],38.9 G/DL
same,MEAN CORPUSCULAR VOLUME,[3],63.63 fL
same,MONOCYTE,[3],0.33%
same,NEUTROPHIL,[3],9%
same,NUCLEATED RED BLOOD CELLS,[3],0 /100WBC
same,PLATELET COUNT,[3],1299.67 x10E3/uL
same,ALANINE AMINOTRANSFERASE,[3],51.67 u/L
same,ALBUMIN,[3],4.23 G/DL
same,ALKALINE PHOSPHATASE,[3],301.67 u/L
same,ASPARTATE AMINOTRANSFERASE,[3],83.67 u/L
same,BLOOD UREA NITROGEN,[3],14.33 mg/dL
same,CARBON DIOXIDE,[3],31.67 mmol/L
same,CHLORIDE,[3],98.67 MEQ/L
same,CHOLESTEROL,[3],81.33 mg/dL
same,CREATINE PHOSPHOKINASE,[3],278 u/L
same,CREATININE,[3],0.27 mg/dL
same,GLUCOSE,[3],142.33 mg/dL
same,LACTATE DEHYDROGENASE,[3],160 u/L
same,LIPASE,[3],9.33 u/L
same,PHOSPHORUS,[3],12.9 mg/dL
same,POTASSIUM,[3],6.47 MEQ/L
same,SODIUM,[3],145.3 MEQ/L
same,TOTAL BILIRUBIN,[3],0.2 mg/dL
same,TOTAL PROTEIN,[3],5.97 G/DL
same,URIC ACID,[3],1.7 mg/dL
same,ABSOLUTE BASOPHIL,[4],0 CELLS/uL
same,ABSOLUTE EOSINOPHIL,[4],0 CELLS/uL
same,ABSOLUTE LYMPHOCYTE,[4],14854.33 CELLS/uL
same,ABSOLUTE MONOCYTE,[4],209.33 CELLS/uL
same,ABSOLUTE SEGMENTED NEUTROPHIL,[4],1369.67 CELLS/uL
same,BASOPHIL,[4],0%
same,EOSINOPHIL,[4],0%
same,ERYTHROCYTE COUNT,[4],5.65 x10E6/uL
same,HEMATOCRIT,[4],34.93%
same,HEMOGLOBIN,[4],13.63 G/DL
same,LEUKOCYTE COUNT,[4],16.43 x10E3/uL
same,LYMPHOCYTE,[4],90.33%
same,MEAN CORPUSCULAR HEMOGLOBIN,[4],24.17 pg
same,MEAN CORPUSCULAR HEMOGLOBIN CONCENTRATION,[4],39.03 G/DL
same,MEAN CORPUSCULAR VOLUME,[4],61.87 fL
same,MONOCYTE,[4],1.33%
same,NEUTROPHIL,[4],8.33%
same,NUCLEATED RED BLOOD CELLS,[4],0 /100WBC
same,PLATELET COUNT,[4],1103 x10E3/uL
same,ALANINE AMINOTRANSFERASE,[4],59 u/L
same,ALBUMIN,[4],4.03 G/DL
same,ALKALINE PHOSPHATASE,[4],331.33 u/L
same,ASPARTATE AMINOTRANSFERASE,[4],90.67 u/L
same,BLOOD UREA NITROGEN,[4],16.67 mg/dL
same,CARBON DIOXIDE,[4],27.33 mmol/L
same,CHLORIDE,[4],100.67 MEQ/L
same,CHOLESTEROL,[4],96.67 mg/dL
same,CREATINE PHOSPHOKINASE,[4],354.33 u/L
same,CREATININE,[4],0.23 mg/dL
same,GLUCOSE,[4],144 mg/dL
same,LACTATE DEHYDROGENASE,[4],305.33 u/L
same,LIPASE,[4],9.33 u/L
same,PHOSPHORUS,[4],12.57 mg/dL
same,POTASSIUM,[4],6.21 MEQ/L
same,SODIUM,[4],143.47 MEQ/L
same,TOTAL BILIRUBIN,[4],0.23 mg/dL
same,TOTAL PROTEIN,[4],5.93 G/DL
same,URIC ACID,[4],1.53 mg/dL
